Data on two compounds can be found in PMC8583849 (International Journal of Molecular Sciences, 2021).

Read-outs that look alike come from different tables or passages of the source. Peptide text beside a SMILES is read from it. * marks the point of attachment. Cbz = O=C(OCc1ccccc1)*

Experiment [1] deals with Cathepsin-L. Details: method as in https://www.apexbt.com/e-64.html. The settings on record: ref https://www.apexbt.com/e-64.html; read-out: IC50, Cathepsin-L inhibition, literature value; cited from earlier work.
For experiment [2], the target named is T1, Cathepsin-L (Homo sapiens, UniProt P07711).
T1 construct: purchased BPS Bioscience 79591
T1 sequence (P07711 114-333): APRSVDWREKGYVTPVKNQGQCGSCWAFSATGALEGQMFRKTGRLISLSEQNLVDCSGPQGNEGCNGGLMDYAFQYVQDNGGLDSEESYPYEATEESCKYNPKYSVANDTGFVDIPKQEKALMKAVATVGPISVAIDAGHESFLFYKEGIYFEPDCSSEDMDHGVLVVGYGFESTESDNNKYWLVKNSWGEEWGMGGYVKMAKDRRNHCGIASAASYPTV
As to the kind of experiment: Cathepsin-L Inhibitor Screening Kit (Fluorometric). In kind it is biochemical. Here is the method: The effect of MG-132 on Cathepsin-L activity was measured using the Cathepsin-L Inhibitor Screening Kit (Fluorometric) (BPS Bioscience #79591, San Diego, CA, USA). The assay is based on the Cathepsin-L mediated cleavage of a synthetic fluorogenic substrate. Generated AFC is measured on a fluorescence microplate reader. The assay was performed according to the manufacturer protocol but adapted to 384-well format with a final volume of 10 μL. Briefly, compounds (stock in 100% v/v DMSO) are transferred in black 384-well microplates by acoustic dispensing (Echo, Labcyte, Beckman Coulter); 5 µL of diluted Cathepsin-L is added and incubated for 30 min at RT. The enzymatic reaction is initiated by the addition of 5 µL of the substrate. The fluorescence signal is detected in a kinetic mode for 15 min at 37 °C using Ex/Em = […] (Envision, PerkinElmer). Final assay concentrations were: Cathepsin-L 0.01 ng/μL, substrate 5 μM. E-64 provided in the kit was used as a positive control for Cathepsin-L inhibition and assay validation. DMSO was used as compound solvent control (0% inhibition).

Experiment [3] concerns rat liver isolated Cathepsin-L. Also noted: method as in PMID 18830882. The settings on record: cited from earlier work.
Experiment [4] concerns SARS-CoV-2 strain BetaCov/Belgium/GHB-03021/2020. Details: method as in PMID 35287429. The settings on record: Vero-E6 cells infected by SARS-CoV-2; read-out: EC50, reduction of viral RNA (qPCR); cited from earlier work.
In experiment [5] the test system is SARS-CoV-2 in Calu-3. Details: method as in PMID 33811811. Particulars: Calu-3 cells; cited from earlier work.
The subject of experiment [6] is T2, SARS-CoV-2 protease PLpro.
T2 construct: the papain-like protease (PLpro; nsp3)
The experiment in a line: Activity towards PLpro. It counts as biochemical. The settings on record: paper in preparation. The source says:
Knowing the role of MG-132 in inhibition of the proteasome and representatives of Cathepsin and Calpain proteases, we investigated its role in the inhibition of Cathepsin-L, one of the key enzymes needed for the entry of SARS-CoV-2. Previously, we reported the anti-cytopathic activity of MG-132 in SARS-CoV-2 infected Vero-E cells [see CHEMBL Entry https://www.ebi.ac.uk/chembl/document_report_card/CHEMBL4495565/, accessed on 28 October 2021]. The results were confirmed by different groups reporting antiviral activity also in other cell lines like Huh-7 and Calu-3 all with sub-micromolar EC50 [39]. If we compare the antiviral activity in cells to the high IC50 measured against Mpro it is reasonable to assume that the effect on Mpro is probably too low to justify submicromolar cell activity, and thus it is supported by inhibition of host proteases. We have measured no activity towards the second SARS-CoV-2 protease PLpro (paper in preparation).

Experiment [7] concerns SARS-CoV-2 main protease (Mpro). Details: method as in PMID 35287429. The settings on record: read-out: IC50 in the Mpro enzymatic assay, cited from earlier work.
Experiment [8] relates to SARS-CoV-2 in Huh-7. Details: method as in PMID 33811811. Particulars: Huh-7 cells; cited from earlier work.
Experiment [9] relates to Mpro. The experiment in a line: Thermostability assay (TSA). In kind it is binding, SARS-CoV-2. Particulars: 1 μM protein, normalized with DMSO. How it is done: A reaction mixture containing the protein at 1 μM final concentration and increasing molar excesses of MG-132 (1×, 3×, 10×, 20×, and 50×) was tested. In each well: 20 μL of buffer 5×, 2 μL of protein stock, the volume of MG-132 stock needed for the fixed molar excess, and Milli-Q H2O to reach 99 μL was added. The protein was left in incubation with the compound for 30 min at room temperature. The plate was put on ice, and 1 μL of 500 × SYPRO orange (Thermo Fischer Scientific) was added in each well. The plate was sealed and centrifuged at 200× g and 4 °C for 1 min. The melting curves were measured in a RT-PCR (Eppendorf, Milan, Italy). After a stationary phase of 2 min at 25 °C, the temperature was increased by 0.5 °C every 30 s until the maximum of 95 °C was reached. Fluorescence has been measured at each step. Each condition has been reproduced in tripled. The Tm control with the protein and the equivalent volume of DMSO only was assessed as well.

As a reminder, the IC50 is the concentration that gives 50% inhibition. For `CC(C)C[C@H](NC(=O)[C@H]1O[C@@H]1C(=O)O)C(=O)NCCCCN=C(N)N` [E64], the IC50 was 2.5 nM in experiment [1]; 2.7e-09 M in experiment [2] (Cathepsin-L 0.01 ng/μL, substrate 5 μM, 30 min incubation at RT, read-out: IC50, Cathepsin-L inhibition); 2.75e-09 M in experiment [2] (fit values given in Figure 6, read-out: IC50 (M), Cathepsin-L inhibition). In addition, the “HillSlope, Cathepsin-L inhibition” value in [2] (fit values given in Figure 6) is listed as -2.040. The “LogIC50, Cathepsin-L inhibition” value in [2] (fit values given in Figure 6) is given as -8.560.

The EC50 is the concentration that produces a half-maximal response. One may read the ΔTm as the change in melting temperature against a reference sample. Regarding `CC(C)C[C@@H](C=O)NC(=O)[C@H](CC(C)C)NC(=O)[C@H](CC(C)C)NC(=O)OCc1ccccc1` [MG-132] (Cbz-Leu-Leu-Leu-aldehyde), the EC50 in experiment [3] was 163 nM; in experiment [4], 100 nM. Moreover, the half-maximal inhibitory concentration (IC50) in [2] (IC50 (M), Cathepsin-L inhibition, fit values given in Figure 6) is 1.55e-10 M; in [2] (IC50, Cathepsin-L inhibition, Cathepsin-L 0.01 ng/μL, substrate 5 μM, 30 min incubation at RT), 1.5e-10 M; in [7], 7400 nM; in experiment [7] (with 1 mM DTT) it was 4700 nM. Besides, the “HillSlope, Cathepsin-L inhibition” value in [2] (fit values given in Figure 6) was -1.826. Besides, in experiment [2] (fit values given in Figure 6), the “LogIC50, Cathepsin-L inhibition” value is -9.811. Further, the “EC50, antiviral activity” value in experiment [5] and in experiment [8] was “sub-micromolar” throughout. Besides, the “activity towards PLpro” value in experiment [6] is listed as “no activity”. In addition, the ΔTm turned out to be 3.5 °C in experiment [9] (50 molar excess of inhibitor) and 0.5 °C in [9] (one molar excess of inhibitor).
